Experimental data as given in US10426773B2, “Systems pharmacology for treating ocular disorders” (Case Western Reserve Univeristy, priority 2011, dated 2019).
“Also recorded” adds a separate entry of the source. Structures can show the parent of a compound that is named as a salt.

Key:
[1] = system: Abca4−/−Rdh8−/− mice; assay: Bright light-induced retinal degeneration in Abca4−/−Rdh8−/− mice, OCT imaging of retinal structure; assay type: in vivo, mouse; settings: for Percent of mice with: subeffective doses BRM 0.1, MTP 1, TAM 0.05, DOX 1 mg/kg bw, OCT 7 days; for retinal / photoreceptor morphology by OCT imaging: pretreatment before light 10,000 lux 30 min, OCT 7 days after light exposure; for retinal protection at full individual dose: BRM 1, MTP 10, TAM 2.5 mg/kg bw individually; for light-exposed mice with complete retinal protection: lower doses BRM 0.1, MTP 1, TAM 0.05 mg/kg bw, alone or all three combined
[2] = biological target: T1, Dopamine D4 receptor (D4R) (Homo sapiens, UniProt P21917); assay: BRET assay for G protein activation in live cells, D4R-Go; assay type: cell-based; settings: for agonistic activity on D4R (BRET signal): HEK293T/17 cells, BRM 25 μM, MTP 100 μM, DOX 50 μM, TAM 100 μM
T1 construct: host or cells: HEK293T/17
T1 sequence (P21917 1-419): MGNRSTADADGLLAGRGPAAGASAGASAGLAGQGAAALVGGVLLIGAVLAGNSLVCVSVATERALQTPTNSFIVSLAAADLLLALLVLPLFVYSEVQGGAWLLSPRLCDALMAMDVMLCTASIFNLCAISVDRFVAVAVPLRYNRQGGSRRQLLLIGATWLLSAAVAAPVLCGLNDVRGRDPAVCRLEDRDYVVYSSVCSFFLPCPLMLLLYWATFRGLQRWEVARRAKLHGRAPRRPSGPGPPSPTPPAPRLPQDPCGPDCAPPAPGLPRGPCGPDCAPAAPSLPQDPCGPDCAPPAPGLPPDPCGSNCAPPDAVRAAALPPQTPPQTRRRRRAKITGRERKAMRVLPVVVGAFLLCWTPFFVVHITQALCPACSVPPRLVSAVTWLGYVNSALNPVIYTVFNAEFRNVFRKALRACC
Excerpt: (§1) FIGS. 35(A-C) illustrate characterizing the activity of BRM, MTP, DOX, and TAM on dopamine and adrenaline receptors (A) Schematic representation of the BRET assay used to evaluate actions of drugs on selected GPCRs. […] The free Venus-Gβγ then interacts with the Gβγ-effector mimetic masGRK3ct-Nluc to produce the BRET signal. GDP, guanosine diphosphate; GRK, G protein-coupled receptor kinase; Nluc, nanoluciferase. (B) Left: Representative BRET signal traces recorded upon activation of D4R with indicated drugs in cells expressing Gαo and Venus-Gβγ, illustrating the agonism assay. Right: Representative traces of D2R responses to 1 μM dopamine in the absence (control) or presence of indicated drugs, illustrating antagonism assay. Note that, in the antagonism assay shown, the black trace overlaps with the red trace and therefore is not visible. (C) Top: Quantification of agonistic activity of ligands on D2R, D4R, D1R, and ADRA1A. D2R-GO, D4R-GO, D1R-Gs, and ADRA1A-Gq signaling were reconstituted in HEK293T/17 cells by transient transfection separately. Maximum amplitudes induced by dopamine (DA; 100 μM), noradrenaline (NA; 100 μM), BRM (25 μM), MTP (100 μM), DOX (50 μM), and TAM (100 μM) were plotted as bar graphs. […] The activity is plotted as percent inhibition. Data are means±SD. Results are representative of two independent experiments each performed with 12 replicates.
Dopamine D1, dopamine D4, and α1A-adrenergic receptors were purchased from cDNA Resource Center (Bloomsburg University, Bloomsburg, Pa.). Plasmid encoding the Flag-tagged, long isoform of the D2 dopamine receptor was a gift from A. Kovoor (University of Rhode Island). pCMV5 plasmids encoding GαoA were gifts from H. Itoh (Nara Institute of Science and Technology, Japan). Plasmids encoding Venus 156-239-Gβ1 and Venus 1-155-Gγ2 were gifts from N. Lambert (Georgia Regents University). Plasmids encoding RGS9-2, Gβ5S, R7BP, and masGRK3ct-Nluc were previously described.
(§2) BRET experiments were performed as previously reported with slight modifications. […] BRET measurements were performed using a microplate reader (POLARstar Omega, BMG Labtech) equipped with two emission photomultiplier tubes. […] The BRET signal is determined by calculating the ratio of the light emitted by Gβ1γ2-Venus (535 nm) over the light emitted by masGRK3ct-Nluc (475 nm). The average baseline value recorded before agonist stimulation was subtracted from BRET signal values, and the resulting difference (ABRET ratio) was obtained.
(§3) We used a real-time kinetic assay in which G protein activation by GPCRs is quantified by monitoring changes in the bioluminescence resonance energy transfer (BRET) signal between Venus-tagged Gβγ and its luciferase-tagged reporter in living cells (FIG. 35A). […]

[3] = system: BALB/c mice; assay: Light-induced retinal degeneration in BALB/c mice, retinal morphology (OCT, histology, IHC); assay type: in vivo, mouse; settings: for retinal morphology / ONL (OCT, histology): ip pretreatment 30 min before 10,000 lux, 7 days after light
[4] = biological target: T2, D2 dopamine receptor (D2R) (Homo sapiens, UniProt P14416); assay: BRET assay for G protein activation in live cells, D2R-Go; assay type: cell-based; settings: for antagonistic activity on D2R (inhibition of BRET signal): preincubation with ligand, then 1 μM dopamine
T2 construct: Flag; host or cells: HEK293T/17
Excerpt: as §1, with “Results are representative of two independent experiments each performed with 12 replicates.” left out
as §2, §3

[5] = Table 14 (complete protection, ONL ≥50 μm)
[6] = Table 14 (no protection, ONL ≤20 μm)

T2 sequence (P14416 whole entry): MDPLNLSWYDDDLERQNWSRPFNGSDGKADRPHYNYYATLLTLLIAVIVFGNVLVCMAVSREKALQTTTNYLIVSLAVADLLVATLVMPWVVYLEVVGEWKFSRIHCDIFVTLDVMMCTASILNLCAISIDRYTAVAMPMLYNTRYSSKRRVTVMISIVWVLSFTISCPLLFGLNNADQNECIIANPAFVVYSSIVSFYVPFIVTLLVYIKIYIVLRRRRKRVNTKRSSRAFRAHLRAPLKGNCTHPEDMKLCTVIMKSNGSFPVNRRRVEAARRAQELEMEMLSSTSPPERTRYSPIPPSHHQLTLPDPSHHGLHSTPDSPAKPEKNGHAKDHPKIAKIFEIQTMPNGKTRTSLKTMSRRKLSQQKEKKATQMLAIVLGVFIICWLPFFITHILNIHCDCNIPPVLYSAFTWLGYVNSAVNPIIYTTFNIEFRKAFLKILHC

COc1cc2nc(N3CCN(C(=O)C4COc5ccccc5O4)CC3)nc(N)c2cc1OC.CS(=O)(=O)O (stereo not drawn) [Doxazosin]
Percent of mice with [1, 5]: 0% of mice | Percent of mice with [1, 6]: 100% of mice | retinal / photoreceptor morphology by OCT imaging ([1]; listed as DOX): substantial protection on photoreceptor morphology; also recorded: dose-dependent fashion | half maximal effective (protective) dose ([1]; protection from bright light-induced degeneration, dose-response, FIG. 25A/B): 0.4 mg/kg | agonistic activity on D4R (BRET signal) [2]: partial agonistic effect | retinal morphology / ONL (OCT, histology) [3]: retinal morphology of drug-treated mice was maintained

COCCc1ccc(OCC(O)CNC(C)C)cc1 (stereo not drawn) [MTP, metoprolol tartrate]
retinal protection at full individual dose [1]: Complete retinal protection | Percent of mice with [1, 5]: 25% of mice | Percent of mice with [1, 6]: 41.7% of mice | light-exposed mice with complete retinal protection [1]: 25% | retinal / photoreceptor morphology by OCT imaging [1]: dose-dependent retinal protection | agonistic activity on D2R (BRET signal) ([4]; HEK293T/17 cells, BRM 25 μM, MTP 100 μM, DOX 50 μM, TAM 100 μM): no agonistic or antagonistic effects | antagonistic activity on D2R (inhibition of BRET signal) [4]: no agonistic or antagonistic effects | agonistic activity on D4R (BRET signal) [2]: no agonistic or antagonistic effects | antagonistic activity on D4R (inhibition of BRET signal) ([2]; preincubation with ligand, then 1 μM dopamine): no agonistic or antagonistic effects | PNA staining of cone photoreceptors ([3]; BRM 2.5 mg/kg bw, MTP 10 mg/kg bw): nearly normal pattern of PNA staining | retinal morphology / ONL (OCT, histology) [3]: preserved the ONL

CCOc1ccccc1OCCN[C@H](C)Cc1ccc(OC)c(S(N)(=O)=O)c1.Cl [Tamsulosin]
retinal protection at full individual dose [1]: Complete retinal protection | Percent of mice with [1, 5]: 16.7% of mice | Percent of mice with [1, 6]: 58.3% of mice | light-exposed mice with complete retinal protection [1]: 17% | retinal / photoreceptor morphology by OCT imaging ([1]; listed as TAM): substantial protection on photoreceptor morphology; also recorded: dose-dependent retinal protection | antagonistic activity on D2R (inhibition of BRET signal) [4]: antagonistic activity | agonistic activity on D4R (BRET signal) [2]: partial agonistic effect
